According to patent publication US11000511B2, “Chemical compounds as antibiotics” (priority 2017, dated 2021):

Columns and labels:
Type in all cases: biochemical
[1] = target: T1, purified LasB protein from P. aeruginosa (Pseudomonas aeruginosa, UniProt P14756); test: Fluorometric assay to determine Ki (Assay 2)
T1 construct: purchased Merck or Charles River Laboratories
Description: (§1) Experiments were therefore conducted (1) to measure the potency of inhibition of compounds of the invention against purified Pseudomonas aeruginosa LasB enzyme and also experiments were conducted (2) to measure the ability of compounds of the invention to inhibit LasB-catalysed elastin degradation. The first assay uses a commercial fluorescent synthetic peptide and purified LasB enzyme. The LasB hydrolysis kinetics are measured allowing the determination of the IC50 and Ki of the inhibitors; the second is a more physiological assay using dialysed Pseudomonas aeruginosa supernatant as source of enzyme, plus its natural substrate Elastin. It is an “end point assay” that determines the percentage of LasB inhibition by each compound for one particular time point and inhibitor concentration. Technical details are described below:
This assay uses commercially available substrate (Abz-Ala-Gly-Leu-Ala-p-Nitro-Benzyl-Amide (Ex: 340 nm, Em: 415 nm) from Peptide International) and purified LasB protein from P. aeruginosa (provided by Merck or Charles River Laboratories). It is performed to determine LasB elastase activity and assess compound inhibition in 96-well plate format. Some compounds of Formula (I) were assessed using the method of Assay 1 (described below). Other compounds of Formula (I) were assessed using the alternative but equivalent method of Assay 2 (described below).
Method: 10 to 140 ng/ml purified LasB is incubated with 250 μM Abz-Ala-Gly-Leu-Ala-p-Nitro-Benzyl-Amide in 50 mM Tris-HCl pH 7.4, 2.5 mM CaCl2), 0.01% of Triton X100 at 37° C. LasB activity (corresponding to fluorescence emission induced by substrate hydrolysis) is measured over 30 min at 37° C. with a fluorescence plate reader such as the Perkin Elmer Envision or similar. Different range of inhibitor concentrations are routinely assessed depending of inhibitor potency from 0.006 to 200 μM (Assay 1; 2-fold dilutions series) or from 0.0016 to 200 μM (Assay 2; 2-fold dilutions series) in order to determine IC50.
The equation used to calculate the Ki from IC50 is: Ki=IC50/(1+([S]/Km)) where [S]=250 μM and Km=214 μM.

[2] = target: T2, LasB elastase activity in dialysed supernatant from P. aeruginosa strain PA01 (Pseudomonas aeruginosa, UniProt P14756); test: Elastin Congo Red assay to determine % inhibition (Assay 2); details: read-out: Elastin hydrolysis % inhibition @ 50/25 μM inhibitor concentration Assay 2
T2 construct: uses as source of enzyme dialysed supernatant from P. aeruginosa; endogenous in cells; host or cells: P. aeruginosa strain PA01 culture supernatant, filtered and dialysed
Description: as §1
The Elastin assay uses as source of enzyme dialysed supernatant from P. aeruginosa and the elastin congo red as substrate. The natural LasB substrate, elastin, is complexed with the congo red dye (Elastin Congo Red, ECR). The elastolysis activity from the culture supernatant will degrade elastin and release the congo red dye into the supernatant. This red dye release can be measured with a spectrophotometer. Some compounds of Formula (I) were assessed using the method of Assay 1 (described below). Other compounds of Formula (I) were assessed using the alternative but equivalent method of Assay 2 (described below).
Method (Assay 2): To determine LasB elastase activity and assess compound inhibition, an overnight culture of P. aeruginosa strain PA01 is diluted in LB medium. After reaching an OD600 nm of 0.6, this culture is diluted and incubated for additional 18-24 h in a shaking incubator. Culture supernatants are recovered by centrifugation and filtrated through a […] filter. These supernatants are dialysed (filtration molecules <20 kDa) into a 50 mM Tris-HCl pH 7.4, 2.5 mM CaCl2 solution at 4° C. under agitation for 24 h. Supernatant dialysed is then mixed volume/volume with the ECR suspension (20 mg/mL of ECR in 100 mM Tris-HCl pH 7.4 buffer supplemented with 1 mM CaCl2) supplemented with TritonX 100 (final concentration of 0.01%) in presence of DMSO (positive control) and/or different concentrations of compound (routinely […]). As a negative control, the dialysed supernatant is replaced by Tris-HCl solution (50 mM Tris-HCl pH 7.4, 2.5 mM CaCl2). The mixed reaction is then incubated overnight in a 37° C. shaking incubator. The reaction supernatant is recovered by centrifugation and the release of congo-red is measured by its absorbance at 495 nm (OD495 nm).
Percentage inhibition is determined using the following equation: ((OD495 nm value of positive control−OD495 nm value of negative control)−(OD495 nm value of treated supernatant−OD495 nm value of negative control))/(OD495 nm value of positive control−OD495 nm value of negative control)×100.

[3] = target: T1, purified LasB protein from P. aeruginosa; test: Fluorometric assay to determine Ki (Assay 1); details: Ki (μM) Assay 1, purified LasB, substrate Abz-Ala-Gly-Leu-Ala-p-Nitro-Benzyl-Amide 250 μM, Ki calculated from IC50; inhibitor 0.006 to 200 μM
Summary of the method: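 Purified LasB (10 to 140 ng/ml) with 250 μM Abz-Ala-Gly-Leu-Ala-p-nitrobenzylamide in 50 mM Tris-HCl pH 7.4, 2.5 mM CaCl2, 0.01% Triton X100; hydrolysis read by fluorescence (Ex 340/Em 415 nm) over 30 min at 37° C. Inhibitor 2-fold series, 0.006–200 μM (Assay 1) or 0.0016–200 μM (Assay 2); IC50 converted to Ki via Ki=IC50/(1+[S]/Km), Km=214 μM.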

[4] = target: T2, LasB elastase activity in dialysed supernatant from P. aeruginosa strain PA01; test: Elastin Congo Red assay to determine % inhibition (Assay 1); details: read-out: Elastin hydrolysis % inhibition @ 50/25 μM inhibitor concentration Assay 1
Summary of the method: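 Enzyme source: PA01 culture supernatant (19 h growth), filtered and dialysed into 50 mM Tris pH 7.4, 2.5 mM CaCl2. Mixed 1:1 with Elastin Congo Red (20 mg/mL) plus 0.01% Triton X-100 and compound (routinely 50 and 25 μM), 24 h at 37 °C shaking. Dye release at OD520 gives % inhibition versus DMSO.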

T1 sequence (P14756 198-498): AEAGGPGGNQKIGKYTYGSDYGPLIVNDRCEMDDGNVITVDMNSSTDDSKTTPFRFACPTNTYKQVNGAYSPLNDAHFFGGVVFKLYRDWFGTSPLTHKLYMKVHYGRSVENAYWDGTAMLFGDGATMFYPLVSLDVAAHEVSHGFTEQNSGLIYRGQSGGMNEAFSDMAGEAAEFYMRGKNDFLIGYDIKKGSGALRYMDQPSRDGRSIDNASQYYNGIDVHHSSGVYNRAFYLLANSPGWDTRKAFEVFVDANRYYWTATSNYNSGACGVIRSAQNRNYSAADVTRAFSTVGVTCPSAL
T2 sequence (P14756 198-498): as above

For `CCOc1ccc2nc(CNC(=O)C3(CC(=O)O)Cc4ccccc4C3)sc2c1` [Example 108, 2-[2-[(6-ethoxy-1,3-benzothiazol-2-yl)methylcarbamoyl]indan-2-yl]acetic acid], the Ki [1] was under 300 nM and the inhibition at 50 µM [2] was over 60%.

`COc1cc2nc(CNC(=O)C3(CC(=O)O)Cc4ccccc4C3)sc2cc1OC` [Example 114, 2-[2-[(5,6-dimethoxy-1,3-benzothiazol-2-yl)methylcarbamoyl]indan-2-yl]acetic acid] showed a Ki [1] of under 300 nM and an inhibition at 50 µM [2] of over 60%.

In the case of `COc1cc2sc(CNC(=O)C3(CC(=O)O)Cc4cc(F)c(F)cc4C3)nc2cc1OCCC[N+](C)(C)C` [Example 125, 2-(5,6-difluoro-2-(((6-methoxy-5-(3-(trimethylammonio)propoxy)benzo[d]thiazol-2-yl)methyl)carbamoyl)-2,3-dihydro-1H-inden-2-yl)acetate], the Ki [1] is reported as under 300 nM and the inhibition at 50 µM [2] is reported as over 60%.

`O=C(O)CC1(C(=O)NCc2nc3cc4c(cc3s2)OCO4)Cc2ccccc2C1` [Example 115, 2-[2-([1,3]dioxolo[4,5-f][1,3]benzothiazol-6-ylmethylcarbamoyl)indan-2-yl]acetic acid] showed a Ki [1] of under 300 nM and an inhibition at 50 µM [2] of over 60%.

In the case of `COc1cc2sc(CNC(=O)C3(CC(=O)O)Cc4cc(F)c(F)cc4C3)nc2cc1OCCCN(C)C` [Example 124, 2-(2-(((5-(3-(dimethylamino)propoxy)-6-methoxybenzo[d]thiazol-2-yl)methyl)carbamoyl)-5,6-difluoro-2,3-dihydro-1H-inden-2-yl)acetic acid], the Ki [1] is reported as under 300 nM and the inhibition at 50 µM [2] is reported as over 60%.

`O=C(O)CC1(C(=O)NCc2nc3ccc(O)cc3s2)Cc2ccccc2C1` [Example 107, 2-[2-[(6-hydroxy-1,3-benzothiazol-2-yl)methylcarbamoyl]indan-2-yl]acetic acid] showed a Ki [1] of under 300 nM and an inhibition at 50 µM [2] of over 60%.

For `O=C(O)CC1(C(=O)NCc2nc3ccc(OC(F)(F)F)cc3s2)Cc2ccccc2C1` [Example 128, 2-[2-[[6-(trifluoromethoxy)-1,3-benzothiazol-2-yl]methylcarbamoyl]indan-2-yl]acetic acid], the Ki [1] was under 300 nM and the inhibition at 50 µM [2] was over 60%.

`O=C(O)CC1(C(=O)NCc2nc3ccccc3s2)Cc2cc(F)c(F)cc2C1` [Example 120, 2-(2-((benzo[d]thiazol-2-ylmethyl)carbamoyl)-5,6-difluoro-2,3-dihydro-1H-inden-2-yl)acetic acid] was tested, and the Ki [1] was under 300 nM and the inhibition at 50 µM [2] was over 60%.

Work on `COc1cc2sc(CNC(=O)C3(CC(=O)O)Cc4ccccc4C3)nc2cc1N1CC([N+](C)(C)C)C1` [Example 123, 2-(2-(((6-methoxy-5-(3-(trimethylammonio)azetidin-1-yl)benzo[d]thiazol-2-yl)methyl)carbamoyl)-2,3-dihydro-1H-inden-2-yl)acetate] yielded a Ki [1] of under 300 nM and an inhibition at 50 µM [2] of over 60%.

With `COc1cc2sc(CNC(=O)C3(CC(=O)O)Cc4ccccc4C3)nc2cc1N1CC(N(C)C)C1` [Example 122, 2-(2-(((5-(3-(dimethylamino)azetidin-1-yl)-6-methoxybenzo[d]thiazol-2-yl)methyl)carbamoyl)-2,3-dihydro-1H-inden-2-yl)acetic acid] the Ki [1] was under 300 nM and the inhibition at 50 µM [2] was over 60%.

`NCc1nnc([C@H](Cc2c[nH]c3ccccc23)NC(=O)C2(CC(=O)O)Cc3ccccc3C2)o1` [Example 118, (S)-2-(2-((1-(5-(aminomethyl)-1,3,4-oxadiazol-2-yl)-2-(1H-indol-3-yl)ethyl)carbamoyl)-2,3-dihydro-1H-inden-2-yl)acetic acid] was tested, and the Ki [3] was under 0.3 µM and the inhibition at 50 µM [4] was over 60%.

Work on `C[N+](C)(C)CC#Cc1ccc2nc(CNC(=O)C3(CC(=O)[O-])Cc4ccccc4C3)sc2c1` [Example 86, 2-[2-[[6-[3-(trimethylammonio)prop-1-ynyl]-1,3-benzothiazol-2-yl]methylcarbamoyl]indan-2-yl]acetate] yielded a Ki [3] of under 0.3 µM and an inhibition at 50 µM [4] of over 60%.

With `CN(C)CCNc1ccc2nc(CNC(=O)C3(CC(=O)O)Cc4ccccc4C3)sc2c1` [Example 105, 2-[2-[[6-[2-(dimethylamino)ethylamino]-1,3-benzothiazol-2-yl]methylcarbamoyl]indan-2-yl]acetic acid] the Ki [3] was 0.3 to 2 µM and the inhibition at 50 µM [4] was 30 to 60%.

In the case of `O=C(O)CC1(C(=O)N[C@H](CO)Cc2c[nH]c3ccccc23)Cc2ccccc2C1` [Example 33, (2-{[(2S)-1-hydroxy-3-(1H-indol-3-yl)propan-2-yl]carbamoyl}-1,3-dihydroinden-2-yl)acetic acid], the Ki [3] is reported as 0.3 to 2 µM and the inhibition at 50 µM [4] is reported as 30 to 60%.

With `N[C@H]1CCN(c2ccc3nc(CNC(=O)C4(CC(=O)O)Cc5ccccc5C4)sc3c2)C1` [Example 101, 2-[2-[[6-[(3 S)-3-aminopyrrolidin-1-yl]-1,3-benzothiazol-2-yl]methylcarbamoyl]indan-2-yl]acetic acid] the Ki [3] was 0.3 to 2 µM and the inhibition at 50 µM [4] was over 60%.

For `COc1ccc2sc(CNC(=O)C3(CC(=O)O)Cc4ccccc4C3)nc2c1` [Example 24, 2-[2-[(5-methoxy-1,3-benzothiazol-2-yl)methylcarbamoyl]indan-2-yl]acetic acid], the Ki [3] was under 0.3 µM and the inhibition at 50 µM [4] was over 60%.

With `NC/C=C/c1ccc2sc(CNC(=O)C3(CC(=O)O)Cc4ccccc4C3)nc2c1` [Example 87, 2-[2-[[5-[(E)-3-aminoprop-1-enyl]-1,3-benzothiazol-2-yl]methylcarbamoyl]indan-2-yl]acetic acid] the Ki [3] was 0.3 to 2 µM and the inhibition at 50 µM [4] was over 60%.

With `O=C(O)CC1(C(=O)NCc2nc3c(Br)cccc3s2)Cc2ccccc2C1` [Example 61, 2-(2-(((4-bromobenzo[d]thiazol-2-yl)methyl)carbamoyl)-2,3-dihydro-1H-inden-2-yl)acetic acid] the Ki [3] was under 0.3 µM and the inhibition at 50 µM [4] was over 60%.

`NC(=O)[C@H](Cc1c[nH]c2ccccc12)NC(=O)C1(CC(=O)O)Cc2ccccc2C1` [Example 52, (S)-2-(2-((1-amino-3-(1H-indol-3-yl)-1-oxopropan-2-yl)carbamoyl)-2,3-dihydro-1H-inden-2-yl)acetic acid] gave a Ki [3] of under 0.3 µM and an inhibition at 50 µM [4] of over 60%.
